Reference: ChEMBL document CHEMBL3813687, “A combined ligand- and structure-based approach for the identification of rilmenidine-derived compounds which synergize the antitumor effects of doxorubicin” (Bioorg Med Chem, 2016)
One block for each molecule: values may come before it. Activity calls are given as the source filed them. The calls are words filed in the database; no cut-off is given here.

Assays:
[1] = Displacement of [3H]-clonidine from Imidazoline-1 receptor in bovine chromaffin cell membranes incubated for 40 mins in presence of RX821002; design: species or system Bos taurus
[2] = Displacement of [3H]-clonidine from Imidazoline-1 receptor in bovine adrenal medullary plasma membrane incubated for 40 mins in presence of RX821002; design: species or system Bos taurus
Nischarin [3] = molecular target: T1, Nischarin (Rattus norvegicus, UniProt Q4G017); assay: Displacement of [125I]PIC from Imidazoline-1 receptor in rat PC12 cell membrane incubated for 30 mins by gamma counting method; type: cell membranes, PC-12
T1 sequence (Q4G017 whole entry): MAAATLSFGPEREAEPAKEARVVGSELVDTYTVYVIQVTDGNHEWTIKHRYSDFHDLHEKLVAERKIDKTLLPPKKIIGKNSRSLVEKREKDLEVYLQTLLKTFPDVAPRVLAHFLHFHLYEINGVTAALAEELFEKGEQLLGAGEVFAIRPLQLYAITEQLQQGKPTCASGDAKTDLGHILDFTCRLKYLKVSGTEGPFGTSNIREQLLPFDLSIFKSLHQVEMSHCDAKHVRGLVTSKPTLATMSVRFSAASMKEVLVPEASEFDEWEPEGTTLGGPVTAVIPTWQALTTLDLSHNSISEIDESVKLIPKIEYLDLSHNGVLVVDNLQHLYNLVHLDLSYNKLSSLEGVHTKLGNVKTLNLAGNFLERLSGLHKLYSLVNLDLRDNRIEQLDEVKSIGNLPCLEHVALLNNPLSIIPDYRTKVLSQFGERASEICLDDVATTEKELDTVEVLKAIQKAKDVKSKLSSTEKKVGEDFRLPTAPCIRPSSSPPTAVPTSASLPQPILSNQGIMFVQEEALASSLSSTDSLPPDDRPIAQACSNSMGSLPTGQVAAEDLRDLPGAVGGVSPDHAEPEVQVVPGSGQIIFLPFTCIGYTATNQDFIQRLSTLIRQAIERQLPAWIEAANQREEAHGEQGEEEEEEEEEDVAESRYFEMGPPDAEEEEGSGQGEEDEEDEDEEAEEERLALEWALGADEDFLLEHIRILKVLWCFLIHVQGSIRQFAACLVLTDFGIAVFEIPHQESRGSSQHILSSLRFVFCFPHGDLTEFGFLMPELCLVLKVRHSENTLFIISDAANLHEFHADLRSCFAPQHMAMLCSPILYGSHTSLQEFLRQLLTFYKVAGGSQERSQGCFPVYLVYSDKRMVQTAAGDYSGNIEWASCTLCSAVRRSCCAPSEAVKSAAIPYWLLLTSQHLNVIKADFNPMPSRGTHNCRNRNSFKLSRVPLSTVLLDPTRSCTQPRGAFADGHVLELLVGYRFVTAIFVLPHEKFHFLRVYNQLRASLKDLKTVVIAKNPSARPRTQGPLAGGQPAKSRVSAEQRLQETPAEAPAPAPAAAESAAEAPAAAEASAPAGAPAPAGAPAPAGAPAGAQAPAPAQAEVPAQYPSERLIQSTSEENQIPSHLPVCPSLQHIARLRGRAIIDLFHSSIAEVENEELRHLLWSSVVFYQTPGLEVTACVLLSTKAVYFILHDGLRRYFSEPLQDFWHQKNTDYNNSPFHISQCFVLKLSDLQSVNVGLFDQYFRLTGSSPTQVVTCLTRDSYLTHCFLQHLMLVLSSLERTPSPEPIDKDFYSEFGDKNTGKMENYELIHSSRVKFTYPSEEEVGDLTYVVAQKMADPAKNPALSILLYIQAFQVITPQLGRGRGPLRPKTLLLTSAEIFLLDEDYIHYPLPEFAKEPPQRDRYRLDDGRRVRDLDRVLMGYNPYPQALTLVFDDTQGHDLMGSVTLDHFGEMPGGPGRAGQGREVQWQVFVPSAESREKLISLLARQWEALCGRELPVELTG

[4] = molecular target: T2, Alpha-2A adrenergic receptor (Homo sapiens, UniProt P08913); assay: Displacement of [3H]RS-79948-197 from recombinant human alpha2A adrenoreceptor expressed in CHOK1 cell membrane by scintillation counting method; type: cell membranes, CHO-K1; conditions: read-out: Ki(app)
T2 sequence (P08913 whole entry): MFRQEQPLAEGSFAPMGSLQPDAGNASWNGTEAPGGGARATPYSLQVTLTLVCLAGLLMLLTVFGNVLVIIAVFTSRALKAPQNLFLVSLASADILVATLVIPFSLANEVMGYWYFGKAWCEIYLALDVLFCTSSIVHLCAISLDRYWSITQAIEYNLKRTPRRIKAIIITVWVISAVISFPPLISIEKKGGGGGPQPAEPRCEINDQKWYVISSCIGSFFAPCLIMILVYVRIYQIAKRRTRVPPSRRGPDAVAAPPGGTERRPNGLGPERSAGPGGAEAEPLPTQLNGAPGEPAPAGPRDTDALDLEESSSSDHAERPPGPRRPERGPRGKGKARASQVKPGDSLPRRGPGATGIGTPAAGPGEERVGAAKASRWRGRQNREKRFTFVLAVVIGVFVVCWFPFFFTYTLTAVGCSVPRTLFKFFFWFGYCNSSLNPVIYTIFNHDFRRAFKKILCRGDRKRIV

K562 [5] = assay: Antiproliferative activity against human K562 cells assessed as inhibition of cell survival after 48 hrs by MTT assay; type: functional, cell-based; conditions: K562, 48 h
[6] = molecular target: T2, Alpha-2A adrenergic receptor; assay: Intrinsic activity at recombinant human alpha2A adrenoreceptor expressed in CHOK1 cell membrane incubated for 30 mins by [35S]GTPgammaS binding assay relative to adrenaline; type: cell membranes; conditions: CHO-K1, human, 0.5 h; read-out: Intrinsic activity
K562 [7] = assay: Potentiation of doxorubicin-mediated cell cycle arrest in human K562 cells assessed as decrease in G2/M cell population after 48 hrs by propidium iodide staining based flow cytometry; type: functional
K562 [8] = assay: Potentiation of doxorubicin-induced apoptosis in human K562 cells assessed as late apoptotic cells at 70 uM after 48 hrs by Annexin V-FITC/propidium iodide staining based flow cytometry (reference value: 1%); type: functional
K562 [9] = assay: Potentiation of 1 uM doxorubicin-induced cytotoxicity in human K562 cells assessed as combination index at 70 uM after 48 hrs by MTT assay relative to control; type: functional
K562 [10] = assay: Cell cycle arrest in human K562 cells assessed as accumulation at G0/G1 phase at 70 uM after 48 hrs by propidium iodide staining based flow cytometry (reference value: 42%); type: functional
[11] = molecular target: Proto-oncogene tyrosine-protein kinase Src (Homo sapiens) (UniProt P12931); assay: Inhibition of recombinant human N-terminal poly His/GST-tagged SRC expressed in baculovirus infected insect cells using KVEKIGEGTYGVVYK peptide substrate assessed as residual activity at 100 uM in presence of NP40 by [gamma32P]ATP filter binding assay relative to control
Proto-oncogene tyrosine-protein kinase Src (Homo sapiens), sequence (P12931 2-536 limits assumed): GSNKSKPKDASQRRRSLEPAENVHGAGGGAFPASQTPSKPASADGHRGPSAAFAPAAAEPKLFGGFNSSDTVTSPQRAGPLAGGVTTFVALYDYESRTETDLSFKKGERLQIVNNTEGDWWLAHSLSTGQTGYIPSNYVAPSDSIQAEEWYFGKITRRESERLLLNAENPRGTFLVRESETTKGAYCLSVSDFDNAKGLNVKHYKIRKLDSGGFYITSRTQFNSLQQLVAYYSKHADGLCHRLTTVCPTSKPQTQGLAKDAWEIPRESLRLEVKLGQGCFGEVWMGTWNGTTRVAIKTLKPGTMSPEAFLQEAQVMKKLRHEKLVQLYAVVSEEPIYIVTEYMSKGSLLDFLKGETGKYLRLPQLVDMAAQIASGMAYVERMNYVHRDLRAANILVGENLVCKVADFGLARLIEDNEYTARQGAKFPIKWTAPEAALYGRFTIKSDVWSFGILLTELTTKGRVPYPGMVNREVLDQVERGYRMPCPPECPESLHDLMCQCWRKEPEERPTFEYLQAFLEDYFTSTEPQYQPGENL

K562 [12] = assay: Potentiation of doxorubicin-mediated cell cycle arrest in human K562 cells assessed as increase in sub-G1 cell population after 48 hrs by propidium iodide staining based flow cytometry; type: functional
K562 [13] = assay: Potentiation of 1.4 uM doxorubicin-induced cytotoxicity in human K562 cells assessed as inhibition of cell survival at 100 uM after 48 hrs by MTT assay relative to control; type: functional
K562 [14] = assay: Induction of apoptosis in human K562 cells assessed as late apoptotic cells at 70 uM after 48 hrs by Annexin V-FITC/propidium iodide staining based flow cytometry (reference value: 1%); type: functional
K562 [15] = assay: Potentiation of 1 uM doxorubicin-induced cytotoxicity in human K562 cells assessed as inhibition of cell survival at 70 uM after 48 hrs by MTT assay relative to control; type: functional
[16] = molecular target: Proto-oncogene tyrosine-protein kinase Src (Homo sapiens) (UniProt P12931); assay: Inhibition of recombinant human N-terminal poly His/GST-tagged SRC expressed in baculovirus infected insect cells using KVEKIGEGTYGVVYK peptide substrate assessed as residual activity at 100 uM by [gamma32P]ATP filter binding assay relative to control
K562 [17] = assay: Potentiation of doxorubicin-induced apoptosis in human K562 cells assessed as early apoptotic cells at 70 uM after 48 hrs by Annexin V-FITC/propidium iodide staining based flow cytometry (reference value: 5%); type: functional
K562 [18] = assay: Cell cycle arrest in human K562 cells assessed as accumulation at S phase at 70 uM after 48 hrs by propidium iodide staining based flow cytometry (reference value: 29%); type: functional
K562 [19] = assay: Antiproliferative activity against human K562 cells at 70 uM after 24 hrs by clonogenic assay relative to control; type: functional; conditions: K562, 24 h, read-out: GI
K562 [20] = assay: Potentiation of doxorubicin-induced apoptosis in human K562 cells assessed as necrotic cells at 70 uM after 48 hrs by Annexin V-FITC/propidium iodide staining based flow cytometry (reference value: 1%); type: functional
K562 [21] = assay: Potentiation of 0.36 uM doxorubicin-induced cytotoxicity in human K562 cells assessed as combination index at 25 uM after 48 hrs by MTT assay relative to control; type: functional
[22] = molecular target: Tyrosine-protein kinase ABL1 (Homo sapiens) (UniProt P00519); assay: Inhibition of recombinant human N-terminal His-tagged ABL expressed in baculovirus infected sf9 cells using abtide as substrate assessed as residual activity at 100 uM by [gamma32P]ATP filter binding assay relative to control
Tyrosine-protein kinase ABL1 (Homo sapiens), sequence (P00519 whole entry): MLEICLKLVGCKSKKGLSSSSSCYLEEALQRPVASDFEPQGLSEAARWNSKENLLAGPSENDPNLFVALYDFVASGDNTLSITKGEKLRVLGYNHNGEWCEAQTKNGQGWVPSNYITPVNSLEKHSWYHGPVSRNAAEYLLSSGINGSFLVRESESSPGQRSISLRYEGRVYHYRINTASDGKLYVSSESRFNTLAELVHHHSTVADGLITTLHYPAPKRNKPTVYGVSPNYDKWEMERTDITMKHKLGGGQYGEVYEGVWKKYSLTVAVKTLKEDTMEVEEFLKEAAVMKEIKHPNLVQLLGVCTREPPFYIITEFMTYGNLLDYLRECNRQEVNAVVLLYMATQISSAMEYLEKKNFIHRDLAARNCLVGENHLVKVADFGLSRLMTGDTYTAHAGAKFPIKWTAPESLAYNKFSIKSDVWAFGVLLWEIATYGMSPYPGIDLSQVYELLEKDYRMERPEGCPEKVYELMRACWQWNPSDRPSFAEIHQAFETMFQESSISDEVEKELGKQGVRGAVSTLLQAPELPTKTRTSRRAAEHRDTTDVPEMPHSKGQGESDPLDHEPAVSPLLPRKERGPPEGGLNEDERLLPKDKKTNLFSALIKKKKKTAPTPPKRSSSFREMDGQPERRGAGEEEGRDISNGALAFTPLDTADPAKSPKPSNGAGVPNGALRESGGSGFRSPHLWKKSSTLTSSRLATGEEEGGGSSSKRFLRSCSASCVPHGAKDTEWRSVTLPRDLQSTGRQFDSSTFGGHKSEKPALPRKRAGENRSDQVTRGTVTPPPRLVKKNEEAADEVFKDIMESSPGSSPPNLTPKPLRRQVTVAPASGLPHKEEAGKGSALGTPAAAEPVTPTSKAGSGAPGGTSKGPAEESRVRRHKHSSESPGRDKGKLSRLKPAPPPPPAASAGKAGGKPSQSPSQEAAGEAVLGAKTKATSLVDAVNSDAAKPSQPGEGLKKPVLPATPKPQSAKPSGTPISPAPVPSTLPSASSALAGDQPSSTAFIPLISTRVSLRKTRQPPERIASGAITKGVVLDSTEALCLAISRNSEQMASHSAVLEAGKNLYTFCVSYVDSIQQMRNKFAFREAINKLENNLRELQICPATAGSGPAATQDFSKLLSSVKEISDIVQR

K562 [23] = assay: Potentiation of 0.36 uM doxorubicin-induced cytotoxicity in human K562 cells assessed as inhibition of cell survival at 25 uM after 48 hrs by MTT assay relative to control; type: functional
[24] = molecular target: Tyrosine-protein kinase ABL1 (Homo sapiens) (UniProt P00519); assay: Inhibition of recombinant human N-terminal His-tagged ABL expressed in baculovirus infected sf9 cells using abtide as substrate assessed as residual activity at 100 uM in presence of NP40 by [gamma32P]ATP filter binding assay relative to control
K562 [25] = assay: Potentiation of 0.7 uM doxorubicin-induced cytotoxicity in human K562 cells assessed as combination index at 50 uM after 48 hrs by MTT assay relative to control; type: functional
K562 [26] = assay: Induction of apoptosis in human K562 cells assessed as necrotic cells at 70 uM after 48 hrs by Annexin V-FITC/propidium iodide staining based flow cytometry (reference value: 1%); type: functional
K562 [27] = assay: Potentiation of 1.4 uM doxorubicin-induced cytotoxicity in human K562 cells assessed as combination index at 100 uM after 48 hrs by MTT assay relative to control; type: functional
K562 [28] = assay: Induction of apoptosis in human K562 cells assessed as early apoptotic cells at 70 uM after 48 hrs by Annexin V-FITC/propidium iodide staining based flow cytometry (reference value: 5%); type: functional
K562 [29] = assay: Inhibition of colony formation in human K562 cells after 24 hrs by clonogenic assay; type: functional, cell-based
K562 [30] = assay: Cell cycle arrest in human K562 cells assessed as accumulation at G2/M phase at 70 uM after 48 hrs by propidium iodide staining based flow cytometry (reference value: 26%); type: functional
K562 [31] = assay: Potentiation of 0.7 uM doxorubicin-induced cytotoxicity in human K562 cells assessed as inhibition of cell survival at 50 uM after 48 hrs by MTT assay relative to control; type: functional
K562 [32] = assay: Cell cycle arrest in human K562 cells assessed as accumulation at sub-G1 phase at 70 uM after 48 hrs by propidium iodide staining based flow cytometry (reference value: 3%); type: functional
Nischarin [33] = molecular target: T1, Nischarin; assay: Displacement of [125I]PIC from Imidazoline-1 receptor in rat PC12 cell membrane by gamma counting method; type: cell membranes, PC-12
K562 [34] = assay: Induction of apoptosis in human K562 cells assessed as necrotic cells at 1 uM after 48 hrs by Annexin V-FITC/propidium iodide staining based flow cytometry (reference value: 1%); type: functional
K562 [35] = assay: Induction of apoptosis in human K562 cells assessed as early apoptotic cells at 1 uM after 48 hrs by Annexin V-FITC/propidium iodide staining based flow cytometry (reference value: 5%); type: functional
K562 [36] = assay: Induction of apoptosis in human K562 cells assessed as late apoptotic cells at 1 uM after 48 hrs by Annexin V-FITC/propidium iodide staining based flow cytometry (reference value: 1%); type: functional
K562 [37] = assay: Cell cycle arrest in human K562 cells assessed as increase in G2/M cell population after 48 hrs by propidium iodide staining based flow cytometry; type: functional
K562 [38] = assay: Induction of apoptosis in human K562 cells assessed as early apoptotic cells at 1 uM after 48 hrs by Annexin V-FITC/propidium iodide staining based flow cytometry relative to control; type: functional
[39] = molecular target: T2, Alpha-2A adrenergic receptor
Description: Agonist activity at recombinant human alpha2A adrenoreceptor expressed in CHOK1 cell membrane incubated for 30 mins by [35S]GTPgammaS binding assay

K562 [40] = assay: Induction of apoptosis in human K562 cells assessed as early apoptotic cells at 50 uM after 48 hrs by Annexin V-FITC/propidium iodide staining based flow cytometry (reference value: 5%); type: functional
K562 [41] = assay: Potentiation of doxorubicin-induced apoptosis in human K562 cells assessed as early apoptotic cells at 50 uM after 48 hrs by Annexin V-FITC/propidium iodide staining based flow cytometry relative to control; type: functional
K562 [42] = assay: Induction of apoptosis in human K562 cells assessed as early apoptotic cells at 300 uM after 48 hrs by Annexin V-FITC/propidium iodide staining based flow cytometry (reference value: 5%); type: functional
K562 [43] = assay: Induction of apoptosis in human K562 cells assessed as early apoptotic cells at 300 uM after 24 hrs by Annexin V-FITC/propidium iodide staining based flow cytometry (reference value: 5%); type: functional

Structure (SMILES): C1CCC2N=C(NC(C3CC3)C3CC3)CC2C1 (stereo not drawn)
pKi [1]: 4

Structure (SMILES): Clc1cccc(Cl)c1N=C1NCCN1 [CLONIDINE]
Ki (Nischarin [3]): 0.126 µM

Structure (SMILES): CC1CCN=C1NC(C1CC1)C1CC1 (stereo not drawn)
pKi [1]: 4

Structure (SMILES): CCC(NC1=NCCC1)C1CC1 (stereo not drawn)
pKi [1]: 6.29

Structure (SMILES): c1ccc([C@H]2C[C@@H]2C2=NCCN2)cc1
Ki (Nischarin [33]): 0.347 µM

Structure (SMILES): COc1cccc2c1C(=O)c1c(O)c3c(c(O)c1C2=O)C[C@@](O)(C(=O)CO)C[C@@H]3O[C@H]1C[C@H](N)[C@H](O)[C@H](C)O1 [DOXORUBICIN]
Activity (K562 [34]): 0%
IC50 (K562 [5]): 1 µM
Activity (K562 [35]): 20%
Activity (K562 [36]): 0%
Activity (K562 [37]): Active
Activity (K562 [38]): 10%

Structure (SMILES): C1COC(NC(C2CC2)C2CC2)=N1 [RILMENIDINE]
Ki [4]: 0.3 µM
EC50 [39]: 0.178 µM
IC50 (K562 [5]): 65 µM
Activity (K562 [40]): 20%
Activity (K562 [41]): 44%
Ki (Nischarin [3]): 0.0126 µM
Emax [6]: 54%

Structure (SMILES): COc1nc(C)nc(Cl)c1NC1=NCCN1 [MOXONIDINE]
Activity (K562 [42]): 2.68%
Activity (K562 [43]): 2.31%

Structure (SMILES): CCC1(c2cnc[nH]2)Cc2ccccc2C1 [ATIPAMEZOLE]
Ki [4]: 0.0012 µM

Structure (SMILES): COC1=CCCC=C1C1=NCCN1
pKi [2]: 8.53

Second part, led by results:

pKi [2]: 8.28
Structure (SMILES): Cc1ccc(F)c(C2=NCCN2)c1

Ki [4]: 27 µM
Emax [6]: -10%
Structure (SMILES): Cc1cc(NCc2ccccc2)cc(=O)n1CCC(C)C
IC50 (K562 [5]): > 300 µM

Ki [4]: 11 µM
Emax [6]: -6%
Structure (SMILES): CN1CCCCC1CCn1cnc2ccccc21 (stereo not drawn)
IC50 (K562 [5]): > 300 µM

Activity [11]: 96%
Ki [4]: 1.2 µM
Activity [16]: 100%
Activity [22]: 94%
Activity [24]: 100%
Emax [6]: -3%
Structure (SMILES): CN1CCCCC1CCn1c2ccccc2c2ccccc21 (stereo not drawn)
Activity (K562 [7]): Active
Activity (K562 [8]): 2%
Ratio (K562 [9]): 0.617
Activity (K562 [10]): 30%
Activity (K562 [12]): Active
inhibition (INH) (K562 [13]): 78.21%
Activity (K562 [14]): 13%
IC50 (K562 [5]): 70 µM
inhibition (INH) (K562 [15]): 72.21%
Activity (K562 [17]): 64%
Activity (K562 [18]): 16%
inhibition of growth at 70 µM (K562 [19]): 88%
Activity (K562 [20]): 1%
Ratio (K562 [21]): 0.877
inhibition (INH) (K562 [23]): 45.75%
Ratio (K562 [25]): 0.511
Activity (K562 [26]): 9%
Ratio (K562 [27]): 0.688
Activity (K562 [28]): 40%
inhibition (K562 [29]): Dose-dependent effect
Activity (K562 [30]): 10%
inhibition (INH) (K562 [31]): 68.62%
Activity (K562 [32]): 44%

Ki [4]: 62 µM
Emax [6]: -18%
Structure (SMILES): CCCCCNc1cc(C)n(CCCCC)c(=O)c1
IC50 (K562 [5]): 115 µM

Ki (Nischarin [3]): 0.000178 µM
Structure (SMILES): CC1CCC(=Nc2ccc(I)cc2Cl)N1 (stereo not drawn)

Ki [4]: 99 µM
Emax [6]: -1%
Structure (SMILES): Cc1cc(NCc2ccc(Cl)cc2)cc(=O)n1CCC(C)C
IC50 (K562 [5]): 224 µM

Ki [4]: 110 µM
Emax [6]: -8%
Structure (SMILES): CCCCCNc1cc(C)n(Cc2ccccc2)c(=O)c1
IC50 (K562 [5]): 140 µM
